One experiment addresses T1, Aurora B (Homo sapiens, UniProt Q96GD4).
T1 construct: Active Aurora B enzyme (recombinant residues 1-344)
As to the kind of experiment: Aurora B enzyme inhibition (time-resolved fluorescence, histone H3 peptide). The experiment is classed as biochemical. To be noted: 1 mM ATP. The method in brief: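 IC50s came from an exponential fit of inhibition against inhibitor concentration, with phosphorylation read as the 665/615 nm time-resolved fluorescence ratio after EDTA stop using Eu-anti-phospho-H3 and SA-APC. The 1 h reaction used Aurora B 1-344 plus GST-INCENP, biotin-histone H3 1-21 peptide and 1 mM ATP in pH 7.4 HEPES buffer.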

A further experiment addresses T2, Aurora A (Homo sapiens, UniProt O14965).
T2 sequence (O14965 1-403): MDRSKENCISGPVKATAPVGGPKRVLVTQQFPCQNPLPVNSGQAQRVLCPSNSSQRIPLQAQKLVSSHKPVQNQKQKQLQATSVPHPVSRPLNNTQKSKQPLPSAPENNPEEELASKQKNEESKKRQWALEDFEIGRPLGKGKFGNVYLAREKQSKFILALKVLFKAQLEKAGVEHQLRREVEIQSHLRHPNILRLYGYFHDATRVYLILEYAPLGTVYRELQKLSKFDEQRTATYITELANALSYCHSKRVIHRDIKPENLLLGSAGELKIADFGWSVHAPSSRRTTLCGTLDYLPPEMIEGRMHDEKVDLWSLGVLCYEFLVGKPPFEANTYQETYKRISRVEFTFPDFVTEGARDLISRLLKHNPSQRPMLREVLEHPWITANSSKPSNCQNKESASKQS
As to the kind of experiment: Aurora A enzyme inhibition (time-resolved fluorescence, STK substrate-2). Format: biochemical. To be noted: 1 mM ATP. The method in brief:
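Phosphorylation of biotinylated STK substrate-2 at 1 mM ATP, 1 h, Hepes buffer pH 7.4 (MgCl2, sodium orthovanadate, Triton X-100). After EDTA quench, 665/615 nm time-resolved fluorescence ratio read via europium anti-phospho antibody and SA-XL665; IC50 from exponential fit versus inhibitor concentration.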

The test system of the next experiment is NCI-H1299 cells. As to the kind of experiment: Induction of polyploidy in H1299. To be noted: NCI-H1299, 48 hours. Format: cell-based, Human. On the procedure:
To determine the induction of polyploidy in H1299 cells, NCI-H1299 were seeded (4K/well) into 96-well culture plates (tissue culture grade, black, flat-clear bottom) and incubated overnight to produce cell-to-plate adherence. Inhibitors at varying concentrations were added into duplicate wells containing cells and culture media (RPMI 1640, 10% fetal calf serum) and incubated at 37 C for 48 hours. The plates were then washed with PBS and the adherent cells fixed by incubating with 3% formalin for 1 hour. After washing four times with PBS, the cells were then stained with Hoechst and subjected to fluorescent (360 i/460e) microscopic high content analysis to determine the effect of inhibitors on nuclear size. Polyploid cells (≧4N) were defined as those having nuclear area>750μ^2. Potency was expressed as the concentration of inhibitor necessary to induce polyploidy in 15% of cells (EC15) and was calculated from least squares analysis of the log dose-response.

The target of a further experiment is KDR (Homo sapiens, UniProt P35968). In words: KDR HTRF in vitro kinase assay. Format: biochemical. Also on record: purified enzyme (His6-KDR 789-1354, MW 63 kD); His6 (N). The settings on record: 1 mM ATP; read-out: KDR enzyme inhibition data (Ki). The method in brief:
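His6-KDR 789-1354 (7 ng/well) with 0.5 μM biotinylated peptide substrate and 1 mM ATP in HEPES pH 7.1, MgCl2/MnCl2, 60 min at room temperature. EDTA-quenched, detected by streptavidin-XL-665 plus Eu-kryptate anti-phosphotyrosine HTRF after 3 h; IC50 from 620/665 nm ratio.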
In general terms: Time-resolved FRET reads energy transfer from a long-lived donor to a nearby acceptor.

Chain of KDR (P35968 789-1354): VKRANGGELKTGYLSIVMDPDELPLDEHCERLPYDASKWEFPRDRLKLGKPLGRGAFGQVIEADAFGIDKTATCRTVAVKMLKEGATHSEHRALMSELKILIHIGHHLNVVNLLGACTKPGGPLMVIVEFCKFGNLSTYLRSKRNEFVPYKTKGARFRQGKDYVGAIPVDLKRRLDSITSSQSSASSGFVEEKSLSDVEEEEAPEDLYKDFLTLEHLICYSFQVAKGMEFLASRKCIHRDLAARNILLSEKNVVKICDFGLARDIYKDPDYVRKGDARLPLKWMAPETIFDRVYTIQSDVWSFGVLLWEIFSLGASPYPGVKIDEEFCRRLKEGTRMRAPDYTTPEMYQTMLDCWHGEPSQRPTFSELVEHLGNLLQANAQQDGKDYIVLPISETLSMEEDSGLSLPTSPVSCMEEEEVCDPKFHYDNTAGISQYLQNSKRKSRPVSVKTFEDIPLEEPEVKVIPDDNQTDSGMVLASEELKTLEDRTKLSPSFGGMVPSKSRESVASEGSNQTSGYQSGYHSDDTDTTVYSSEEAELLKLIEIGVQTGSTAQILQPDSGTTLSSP
T1 sequence (Q96GD4 whole entry, the tested form may be a part): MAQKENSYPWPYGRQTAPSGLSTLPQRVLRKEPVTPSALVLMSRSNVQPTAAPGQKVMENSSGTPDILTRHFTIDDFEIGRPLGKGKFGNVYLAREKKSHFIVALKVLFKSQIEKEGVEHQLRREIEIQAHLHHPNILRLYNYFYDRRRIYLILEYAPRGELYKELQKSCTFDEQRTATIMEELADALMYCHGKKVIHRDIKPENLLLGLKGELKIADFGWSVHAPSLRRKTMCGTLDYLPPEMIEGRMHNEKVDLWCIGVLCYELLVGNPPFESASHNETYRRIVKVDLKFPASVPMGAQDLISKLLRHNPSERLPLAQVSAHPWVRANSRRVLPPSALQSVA
T1 sequence (Q9NQS7 826-918 partner limits assumed): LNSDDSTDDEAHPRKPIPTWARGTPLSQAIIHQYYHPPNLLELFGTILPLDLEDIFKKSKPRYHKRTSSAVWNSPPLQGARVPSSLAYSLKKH

For the substance “(1S,2S,3R,4R)-3-({5-fluoro-2-[(1-methyl-1H-pyrazol-4-yl)amino]pyrimidin-4-yl}amino)bicyclo[2.2.1]hept-5-ene-2-carboxamide and (1R,2R,3S,4S)-3-({5-fluoro-2-[(1-methyl-1H-pyrazol-4-yl)amino]pyrimidin-4-yl}amino)bicyclo[2.2.1]hept-5-ene-2-carboxamide [Example 1]”, the inhibition constant (Ki) on Aurora B is under 0.1 µM; at Aurora A, under 0.1 µM; on KDR it was 0.1 to 1 µM. For the same substance, the “EC15 (concentration of inhibitor necessary to induce polyploidy in 15% of cells)” value in the experiment with NCI-H1299 cells is “B (“B” represents an EC15 of between 0.1 μM and 1 μM)”.

What is called Ki is the dissociation constant of the complex between target and ligand, obtained from inhibition or displacement.

For the origin of these results see patent US8426408B2, “Pyrimidine inhibitors of kinases” (AbbVie Inc., priority 2009, dated 2013).
